ChEMBL document CHEMBL1221330, “N-tetrahydrothiochromenoisoxazole-1-carboxamides as selective antagonists of cloned human 5-HT2B” (Bioorg Med Chem Lett, 2010)
Blank lines part the entries; values can stand above or below the molecule they belong to.

Assays:
[1] = molecular target: T1, 5-hydroxytryptamine receptor 2B (Homo sapiens, UniProt P41595); test: Displacement of [3H]LSD from human 5HT2B receptor at 10 uM
[2] = molecular target: T2, 5-hydroxytryptamine receptor 2A (Homo sapiens, UniProt P28223); test: Displacement of [3H]Ketanserin from human 5HT2A receptor
[3] = molecular target: T1, 5-hydroxytryptamine receptor 2B; test: Displacement of [3H]LSD from human 5HT2B receptor
[4] = molecular target: T3, 5-hydroxytryptamine receptor 2C (Homo sapiens, UniProt P28335); test: Displacement of [3H]Mesulergine from human 5HT2C receptor
T3 sequence (P28335 whole entry): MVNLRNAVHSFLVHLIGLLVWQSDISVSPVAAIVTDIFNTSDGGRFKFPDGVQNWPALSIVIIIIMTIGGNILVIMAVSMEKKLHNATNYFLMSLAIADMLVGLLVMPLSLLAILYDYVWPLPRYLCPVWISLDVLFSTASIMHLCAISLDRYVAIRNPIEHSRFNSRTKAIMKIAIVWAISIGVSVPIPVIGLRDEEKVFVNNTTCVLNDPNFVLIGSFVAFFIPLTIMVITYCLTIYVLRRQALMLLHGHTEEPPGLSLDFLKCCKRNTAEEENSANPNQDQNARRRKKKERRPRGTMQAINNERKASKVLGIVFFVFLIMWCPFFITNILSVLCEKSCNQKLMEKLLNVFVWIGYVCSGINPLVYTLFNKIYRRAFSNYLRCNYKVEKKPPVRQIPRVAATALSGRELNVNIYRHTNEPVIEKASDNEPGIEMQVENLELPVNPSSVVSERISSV

[5] = molecular target: T4, 5-hydroxytryptamine receptor 2C (Homo sapiens) (UniProt P28335); test: Displacement of [3H]Mesulergine from human 5HT2C receptor at 10 uM
T4 sequence (whole entry): T3 sequence (P28335 whole entry)

[6] = molecular target: T2, 5-hydroxytryptamine receptor 2A; test: Displacement of [3H]Ketanserin from human 5HT2A receptor at 10 uM
[7] = molecular target: Beta-3 adrenergic receptor (Homo sapiens) (UniProt P13945); test: Displacement of [125I]Iodopindolol from human adrenergic beta3 receptor at 10 uM
[8] = molecular target: T1, 5-hydroxytryptamine receptor 2B; test: Agonist activity at human 5HT2B receptor assessed as 10633-induced calcium mobilization by FLIPR assay; type: functional
[9] = molecular target: T5, Sodium-dependent serotonin transporter (Homo sapiens, UniProt P31645); test: Displacement of [3H]Citalopram from human SERT
[10] = molecular target: T5, Sodium-dependent serotonin transporter; test: Displacement of [3H]Citalopram from human SERT at 10 uM
[11] = molecular target: Histamine H2 receptor (Homo sapiens) (UniProt P25021); test: Displacement of [3H]Tiotidine from human histamine H2 receptor at 10 uM
[12] = molecular target: Histamine H1 receptor (Homo sapiens) (UniProt P35367); test: Displacement of [3H]Pyrilamine from human histamine H1 receptor at 10 uM
[13] = molecular target: T6, Sodium-dependent dopamine transporter (Homo sapiens, UniProt Q01959); test: Displacement of [3H][…] from human DAT at 10 uM
[14] = molecular target: Beta-1 adrenergic receptor (Homo sapiens) (UniProt P08588); test: Displacement of [125I]Iodopindolol from human adrenergic beta-1 receptor at 10 uM
[15] = molecular target: T6, Sodium-dependent dopamine transporter; test: Displacement of [3H][…] from human DAT
[16] = molecular target: Muscarinic acetylcholine receptor M1 (Homo sapiens) (UniProt P11229); test: Displacement of [3H]QNB from human muscarinic M1 receptor at 10 uM
[17] = molecular target: Delta-type opioid receptor (Homo sapiens) (UniProt P41143); test: Displacement of [3H]DADLE from human delta opioid receptor at 10 uM
[18] = molecular target: T7, Sodium-dependent noradrenaline transporter (Homo sapiens, UniProt P23975); test: Displacement of [3H]Nisoxetine from human NET at 10 uM
[19] = molecular target: 5-hydroxytryptamine receptor 5A (Homo sapiens) (UniProt P47898); test: Displacement of [3H]LSD from human 5HT5A receptor at 10 uM
[20] = molecular target: D(2) dopamine receptor (Homo sapiens) (UniProt P14416); test: Displacement of [3H]N-methylspiperone from human dopamine D2 receptor at 10 uM
Homo sapiens = species on record: Homo sapiens; test: Displacement of [3H]DTG from human sigma 2 receptor at 10 uM
[21] = molecular target: T3, 5-hydroxytryptamine receptor 2C; test: Agonist activity at human 5HT2C receptor assessed as 10633-induced calcium mobilization by FLIPR assay; type: functional
[22] = molecular target: Mu-type opioid receptor (Homo sapiens) (UniProt P35372); test: Displacement of [3H]DAMGO from human mu opioid receptor at 10 uM
[23] = molecular target: Beta-2 adrenergic receptor (Homo sapiens) (UniProt P07550); test: Displacement of [125I]Iodopindolol from human adrenergic beta2 receptor at 10 uM
[24] = molecular target: T7, Sodium-dependent noradrenaline transporter; test: Displacement of [3H]Nisoxetine from human NET
[25] = molecular target: T1, 5-hydroxytryptamine receptor 2B; test: Agonist activity at human 5HT2B receptor assessed as 5HT-induced calcium mobilization at 10 uM by FLIPR assay relative to 5HT; type: functional
[26] = molecular target: Muscarinic acetylcholine receptor M5 (Homo sapiens) (UniProt P08912); test: Displacement of [3H]QNB from human muscarinic M5 receptor at 10 uM
[27] = molecular target: 5-hydroxytryptamine receptor 1E (Homo sapiens) (UniProt P28566); test: Displacement of [3H]5-HT from human 5HT1E receptor at 10 uM
[28] = molecular target: D(4) dopamine receptor (Homo sapiens) (UniProt P21917); test: Displacement of [3H]N-methylspiperone from human dopamine D4 receptor at 10 uM
[29] = molecular target: Muscarinic acetylcholine receptor M2 (Homo sapiens) (UniProt P08172); test: Displacement of [3H]QNB from human muscarinic M2 receptor at 10 uM
[30] = molecular target: Sigma non-opioid intracellular receptor 1 (Homo sapiens) (UniProt Q99720); test: Displacement of [3H]Pentazocine from human sigma 1 receptor at 10 uM
[31] = molecular target: T3, 5-hydroxytryptamine receptor 2C; test: Agonist activity at human 5HT2C receptor assessed as 5HT-induced calcium mobilization by FLIPR assay; type: functional
[32] = molecular target: D(1A) dopamine receptor (Homo sapiens) (UniProt P21728); test: Displacement of [3H][…] from human dopamine D1 receptor at 10 uM
[33] = molecular target: 5-hydroxytryptamine receptor 7 (Homo sapiens) (UniProt P34969); test: Displacement of [3H]LSD from human 5HT7 receptor at 10 uM
[34] = molecular target: Alpha-1A adrenergic receptor (Homo sapiens) (UniProt P35348); test: Displacement of [3H]Prazosin from human adrenergic alpha1A receptor at 10 uM
[35] = molecular target: Muscarinic acetylcholine receptor M4 (Homo sapiens) (UniProt P08173); test: Displacement of [3H]QNB from human muscarinic M4 receptor at 10 uM
[36] = molecular target: Histamine H3 receptor (Homo sapiens) (UniProt Q9Y5N1); test: Displacement of [3H]alpha-methylhistamine from human histamine H3 receptor at 10 uM
[37] = molecular target: Histamine H4 receptor (Homo sapiens) (UniProt Q9H3N8); test: Displacement of [3H]Histamine from human histamine H4 receptor at 10 uM
[38] = molecular target: T1, 5-hydroxytryptamine receptor 2B; test: Agonist activity at human 5HT2B receptor assessed as 5HT-induced calcium mobilization by FLIPR assay; type: functional
[39] = molecular target: 5-hydroxytryptamine receptor 1D (Homo sapiens) (UniProt P28221); test: Displacement of [3H][…] from human 5HT1D receptor at 10 uM
[40] = molecular target: Kappa-type opioid receptor (Homo sapiens) (UniProt P41145); test: Displacement of [3H]U69593 from human kappa opioid receptor at 10 uM
[41] = molecular target: Muscarinic acetylcholine receptor M3 (Homo sapiens) (UniProt P20309); test: Displacement of [3H]QNB from human muscarinic M3 receptor at 10 uM
[42] = molecular target: T1, 5-hydroxytryptamine receptor 2B; test: Antagonist activity at human 5HT2B receptor assessed as inhibition of 10633-induced calcium mobilization by FLIPR assay; type: functional
[43] = molecular target: D(3) dopamine receptor (Homo sapiens) (UniProt P35462); test: Displacement of [3H]N-methylspiperone from human dopamine D3 receptor at 10 uM
[44] = molecular target: 5-hydroxytryptamine receptor 1A (Homo sapiens) (UniProt P08908); test: Displacement of [3H]8-OH-DPAT from human 5HT1A receptor at 10 uM
[45] = molecular target: 5-hydroxytryptamine receptor 3A (Homo sapiens) (UniProt P46098); test: Displacement of [3H]LY278584 from human 5HT3 receptor at 10 uM
[46] = molecular target: 5-hydroxytryptamine receptor 1B (Homo sapiens) (UniProt P28222); test: Displacement of [3H][…] from human 5HT1B receptor at 10 uM

T1 sequence (P41595 whole entry): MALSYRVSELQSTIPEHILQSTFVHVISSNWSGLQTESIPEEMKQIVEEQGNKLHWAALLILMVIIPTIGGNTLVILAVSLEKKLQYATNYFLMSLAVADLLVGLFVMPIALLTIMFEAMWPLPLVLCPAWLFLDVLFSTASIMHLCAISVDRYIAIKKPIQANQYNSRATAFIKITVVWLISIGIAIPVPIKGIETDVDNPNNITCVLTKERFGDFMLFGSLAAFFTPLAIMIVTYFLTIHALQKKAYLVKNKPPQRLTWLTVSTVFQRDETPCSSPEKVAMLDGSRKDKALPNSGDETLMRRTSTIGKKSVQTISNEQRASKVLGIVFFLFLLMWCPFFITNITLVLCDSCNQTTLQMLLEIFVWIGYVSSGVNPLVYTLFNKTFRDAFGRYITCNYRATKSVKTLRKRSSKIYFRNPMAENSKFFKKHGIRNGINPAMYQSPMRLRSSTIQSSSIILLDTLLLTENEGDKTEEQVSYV
T2 sequence (P28223 whole entry): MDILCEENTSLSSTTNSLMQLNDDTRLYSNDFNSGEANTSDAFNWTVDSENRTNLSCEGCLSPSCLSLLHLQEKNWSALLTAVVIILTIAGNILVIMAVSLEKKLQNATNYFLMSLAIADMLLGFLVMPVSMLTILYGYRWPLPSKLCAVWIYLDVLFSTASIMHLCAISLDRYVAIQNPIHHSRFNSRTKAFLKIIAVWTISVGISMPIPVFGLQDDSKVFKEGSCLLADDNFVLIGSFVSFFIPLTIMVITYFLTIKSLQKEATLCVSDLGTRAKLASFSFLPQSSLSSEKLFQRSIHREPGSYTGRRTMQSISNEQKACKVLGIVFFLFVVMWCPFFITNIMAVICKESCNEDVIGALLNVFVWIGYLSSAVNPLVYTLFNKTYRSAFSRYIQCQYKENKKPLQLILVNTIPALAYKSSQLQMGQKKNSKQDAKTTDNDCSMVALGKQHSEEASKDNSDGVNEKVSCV
T6 sequence (Q01959 whole entry): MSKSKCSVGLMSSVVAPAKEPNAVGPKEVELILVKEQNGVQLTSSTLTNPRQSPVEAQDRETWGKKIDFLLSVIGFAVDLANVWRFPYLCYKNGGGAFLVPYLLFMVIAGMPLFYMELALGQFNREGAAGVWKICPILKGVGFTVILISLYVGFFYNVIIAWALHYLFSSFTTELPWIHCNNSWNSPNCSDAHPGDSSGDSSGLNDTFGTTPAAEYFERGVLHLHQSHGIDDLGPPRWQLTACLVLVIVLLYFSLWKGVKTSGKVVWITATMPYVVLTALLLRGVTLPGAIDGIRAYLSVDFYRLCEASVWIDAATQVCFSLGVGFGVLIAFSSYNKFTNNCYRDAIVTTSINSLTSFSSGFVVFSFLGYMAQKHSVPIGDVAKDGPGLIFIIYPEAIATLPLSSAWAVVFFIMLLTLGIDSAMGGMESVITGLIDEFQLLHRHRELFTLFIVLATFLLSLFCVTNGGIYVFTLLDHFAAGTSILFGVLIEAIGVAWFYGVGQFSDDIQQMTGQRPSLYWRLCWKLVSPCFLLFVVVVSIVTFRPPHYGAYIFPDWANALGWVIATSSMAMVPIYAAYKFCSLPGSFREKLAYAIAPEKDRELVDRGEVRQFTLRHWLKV
T7 sequence (P23975 whole entry): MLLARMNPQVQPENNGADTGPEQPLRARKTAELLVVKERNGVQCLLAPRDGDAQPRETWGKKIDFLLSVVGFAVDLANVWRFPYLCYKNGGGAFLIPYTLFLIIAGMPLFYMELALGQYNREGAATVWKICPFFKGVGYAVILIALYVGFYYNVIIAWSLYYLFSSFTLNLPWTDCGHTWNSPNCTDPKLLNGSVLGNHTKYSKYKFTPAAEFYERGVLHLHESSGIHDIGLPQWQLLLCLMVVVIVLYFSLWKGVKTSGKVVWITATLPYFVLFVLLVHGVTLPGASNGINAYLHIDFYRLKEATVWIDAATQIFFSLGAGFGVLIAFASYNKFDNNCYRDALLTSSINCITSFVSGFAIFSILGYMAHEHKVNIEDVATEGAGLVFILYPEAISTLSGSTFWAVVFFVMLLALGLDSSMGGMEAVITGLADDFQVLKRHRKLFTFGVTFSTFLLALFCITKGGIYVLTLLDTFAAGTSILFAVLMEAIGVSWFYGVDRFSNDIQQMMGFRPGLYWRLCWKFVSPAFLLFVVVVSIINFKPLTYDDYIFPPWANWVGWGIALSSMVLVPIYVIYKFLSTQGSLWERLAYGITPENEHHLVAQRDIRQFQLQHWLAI
Chain of 5-hydroxytryptamine receptor 3A (Homo sapiens) (P46098 whole entry): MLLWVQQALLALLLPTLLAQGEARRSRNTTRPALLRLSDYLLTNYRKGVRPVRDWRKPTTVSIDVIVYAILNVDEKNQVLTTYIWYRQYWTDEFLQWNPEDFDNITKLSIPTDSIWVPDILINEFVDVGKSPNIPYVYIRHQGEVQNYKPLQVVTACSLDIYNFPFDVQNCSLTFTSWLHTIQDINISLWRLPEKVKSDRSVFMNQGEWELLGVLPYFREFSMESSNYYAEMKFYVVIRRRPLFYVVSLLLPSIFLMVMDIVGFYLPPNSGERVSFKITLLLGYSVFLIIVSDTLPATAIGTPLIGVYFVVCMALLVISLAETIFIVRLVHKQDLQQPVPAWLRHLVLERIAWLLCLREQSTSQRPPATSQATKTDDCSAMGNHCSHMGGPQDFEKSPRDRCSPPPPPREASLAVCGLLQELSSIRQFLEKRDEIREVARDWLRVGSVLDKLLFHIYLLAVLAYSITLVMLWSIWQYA
Chain of Mu-type opioid receptor (Homo sapiens) (P35372 whole entry): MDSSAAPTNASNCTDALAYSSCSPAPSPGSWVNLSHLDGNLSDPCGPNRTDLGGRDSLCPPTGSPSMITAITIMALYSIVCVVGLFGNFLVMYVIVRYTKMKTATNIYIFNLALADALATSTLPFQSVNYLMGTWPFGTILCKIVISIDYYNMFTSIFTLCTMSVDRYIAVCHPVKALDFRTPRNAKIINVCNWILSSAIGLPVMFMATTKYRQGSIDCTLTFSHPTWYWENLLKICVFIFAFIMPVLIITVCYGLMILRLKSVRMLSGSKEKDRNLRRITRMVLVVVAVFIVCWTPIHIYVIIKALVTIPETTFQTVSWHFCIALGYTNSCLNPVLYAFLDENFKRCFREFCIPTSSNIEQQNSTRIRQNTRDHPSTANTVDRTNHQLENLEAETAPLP
Chain of Muscarinic acetylcholine receptor M3 (Homo sapiens) (P20309 whole entry, looked up): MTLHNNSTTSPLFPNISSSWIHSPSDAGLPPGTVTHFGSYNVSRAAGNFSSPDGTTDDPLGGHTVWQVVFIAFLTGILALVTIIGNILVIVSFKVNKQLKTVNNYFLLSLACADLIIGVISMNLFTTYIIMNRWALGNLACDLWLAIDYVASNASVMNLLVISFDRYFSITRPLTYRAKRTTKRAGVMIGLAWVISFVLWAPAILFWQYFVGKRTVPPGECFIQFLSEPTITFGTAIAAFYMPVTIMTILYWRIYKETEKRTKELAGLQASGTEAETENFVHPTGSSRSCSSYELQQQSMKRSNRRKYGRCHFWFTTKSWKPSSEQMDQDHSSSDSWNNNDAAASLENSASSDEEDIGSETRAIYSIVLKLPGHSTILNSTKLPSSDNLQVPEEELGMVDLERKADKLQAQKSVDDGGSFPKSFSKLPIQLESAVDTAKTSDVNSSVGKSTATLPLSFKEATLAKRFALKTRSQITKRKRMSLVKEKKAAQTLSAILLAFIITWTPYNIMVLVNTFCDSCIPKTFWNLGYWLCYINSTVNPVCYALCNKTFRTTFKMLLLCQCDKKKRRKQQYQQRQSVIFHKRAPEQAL
Chain of Muscarinic acetylcholine receptor M1 (Homo sapiens) (P11229 whole entry): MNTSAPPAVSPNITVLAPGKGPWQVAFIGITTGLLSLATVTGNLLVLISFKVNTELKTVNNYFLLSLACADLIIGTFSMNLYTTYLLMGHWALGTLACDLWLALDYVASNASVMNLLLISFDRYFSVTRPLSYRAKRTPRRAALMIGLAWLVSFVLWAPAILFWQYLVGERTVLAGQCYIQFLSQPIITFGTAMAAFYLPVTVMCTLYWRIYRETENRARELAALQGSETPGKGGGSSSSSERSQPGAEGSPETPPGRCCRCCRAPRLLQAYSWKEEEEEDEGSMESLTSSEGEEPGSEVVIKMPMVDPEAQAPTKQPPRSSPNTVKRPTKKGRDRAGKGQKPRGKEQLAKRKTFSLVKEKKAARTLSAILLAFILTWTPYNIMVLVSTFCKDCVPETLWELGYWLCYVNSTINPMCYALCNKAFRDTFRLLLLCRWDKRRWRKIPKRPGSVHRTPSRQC
Chain of Histamine H2 receptor (Homo sapiens) (P25021 whole entry): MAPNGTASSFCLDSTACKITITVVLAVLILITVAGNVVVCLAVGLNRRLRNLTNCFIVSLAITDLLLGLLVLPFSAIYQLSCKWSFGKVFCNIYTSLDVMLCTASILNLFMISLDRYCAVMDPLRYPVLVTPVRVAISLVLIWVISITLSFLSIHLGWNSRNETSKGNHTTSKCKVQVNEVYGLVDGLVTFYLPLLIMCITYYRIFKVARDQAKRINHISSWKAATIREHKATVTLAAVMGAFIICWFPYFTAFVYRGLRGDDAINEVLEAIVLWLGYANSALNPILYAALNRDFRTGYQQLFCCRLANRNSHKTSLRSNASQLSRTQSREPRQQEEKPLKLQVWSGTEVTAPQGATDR
Chain of Kappa-type opioid receptor (Homo sapiens) (P41145 whole entry): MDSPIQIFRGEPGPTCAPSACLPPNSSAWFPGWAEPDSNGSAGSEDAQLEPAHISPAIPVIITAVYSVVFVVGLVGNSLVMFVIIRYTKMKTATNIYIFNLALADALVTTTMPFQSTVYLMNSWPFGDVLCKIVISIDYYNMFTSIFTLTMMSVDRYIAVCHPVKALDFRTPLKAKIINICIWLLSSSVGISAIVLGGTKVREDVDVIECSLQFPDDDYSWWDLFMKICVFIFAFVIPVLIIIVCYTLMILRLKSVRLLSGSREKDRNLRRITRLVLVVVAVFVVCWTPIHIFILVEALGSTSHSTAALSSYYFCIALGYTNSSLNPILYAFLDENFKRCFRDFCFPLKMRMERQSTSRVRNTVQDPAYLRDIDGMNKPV

Structure (SMILES): CCCNC(=O)N1OCC2COc3ccccc3C21 (stereo unspecified)
inhibition [1]: 53.5%
Ki [2]: > 10 µM
Ki [3]: 6.6 µM
Ki [4]: > 10 µM
inhibition [5]: 14.7%
inhibition [6]: 2.4%

Structure (SMILES): Cc1ccccc1NC(=O)N1OCC2COc3ccccc3C21 (stereo unspecified)
inhibition [1]: 52.2%
Ki [2]: > 10 µM
Ki [3]: 4 µM
Ki [4]: > 10 µM
inhibition [5]: 40.2%
inhibition [6]: 12.8%

Structure (SMILES): CCCCNC(=O)N1OCC2COc3ccccc3C21 (stereo unspecified)
inhibition [1]: 35.4%
Ki [2]: > 10 µM
Ki [3]: > 10 µM
Ki [4]: > 10 µM
inhibition [5]: 23.4%
inhibition [6]: 0.8%

Structure (SMILES): O=C(Nc1ccccc1)N1OCC2COc3ccccc3C21 (stereo unspecified)
inhibition [1]: 71.6%
Ki [2]: > 10 µM
Ki [3]: 1.61 µM
Ki [4]: > 10 µM
inhibition [5]: 56.7%
inhibition [6]: 11%

Structure (SMILES): CC(C)NC(=O)N1OCC2COc3ccccc3C21 (stereo unspecified)
inhibition [1]: 14.8%
Ki [2]: > 10 µM
Ki [3]: > 10 µM
Ki [4]: > 10 µM
inhibition [5]: 28.9%
inhibition [6]: -0.2%

Structure (SMILES): CC(C)(C)NC(=O)N1OCC2COc3ccccc3C21 (stereo unspecified)
inhibition [1]: 43%
Ki [2]: > 10 µM
Ki [3]: > 10 µM
Ki [4]: > 10 µM
inhibition [5]: 25.9%
inhibition [6]: 12%

The next lines start with the values.

inhibition [1]: 75.5%
Ki [2]: > 10 µM
Ki [3]: 1.77 µM
Ki [4]: > 10 µM
inhibition [5]: 28.1%
inhibition [6]: 5.5%
Structure (SMILES): O=C(NC1CCCCC1)N1OCC2COc3ccccc3C21 (stereo unspecified)

inhibition [1]: 93%
Ki [2]: > 10 µM
Ki [3]: 0.384 µM
Ki [4]: > 10 µM
inhibition [5]: 37.4%
Structure (SMILES): CCCNC(=O)N1OCC2CSc3ccc(F)cc3C21 (stereo unspecified)

inhibition [1]: 89.3%
Ki [2]: > 10 µM
Ki [3]: 0.569 µM
Ki [4]: > 10 µM
inhibition [5]: 55.4%
inhibition [6]: 2.2%
Structure (SMILES): CC(C)NC(=O)N1OCC2CSc3ccc(F)cc3C21 (stereo unspecified)

inhibition [1]: 95.3%
Ki [2]: > 10 µM
Ki [3]: 0.223 µM
Ki [4]: 5.17 µM
inhibition [5]: 61.2%
inhibition [6]: 33.6%
Structure (SMILES): O=C(Nc1ccccc1)N1OCC2CSc3ccc(F)cc3C21 (stereo unspecified)

inhibition [7]: 7.1%
EC50 [8]: > 10 µM
Ki [9]: > 10 µM
inhibition [10]: 20.4%
inhibition [11]: 30.8%
inhibition [12]: -4.3%
inhibition [13]: 66.3%
inhibition [14]: 2.4%
Ki [15]: > 10 µM
inhibition [16]: 23.4%
inhibition [17]: -3.2%
inhibition [18]: 34.1%
inhibition [19]: 46.6%
inhibition [20]: 8.1%
inhibition (Homo sapiens): 1.1%
EC50 [21]: > 10 µM
inhibition [1]: 102%
inhibition [22]: 8.9%
Ki [2]: > 10 µM
Ki [3]: 0.042 µM
inhibition [23]: 3.7%
Ki [24]: > 10 µM
Efficacy [25]: 0.5%
Ki [4]: > 10 µM
inhibition [26]: 31.8%
inhibition [27]: -7.8%
inhibition [28]: 12%
inhibition [29]: 23.7%
inhibition [30]: 16.5%
EC50 [31]: 0.000724 µM
inhibition [5]: 30%
inhibition [32]: 14%
inhibition [33]: 27.1%
inhibition [34]: 37.8%
inhibition [35]: 44.9%
inhibition [36]: -10%
inhibition [37]: -0.5%
EC50 [38]: 0.00398 µM
inhibition [39]: 4.5%
inhibition [40]: 34.6%
inhibition [41]: 20.6%
IC50 [42]: 0.0427 µM
inhibition [43]: 3.2%
inhibition [6]: 6.2%
inhibition [44]: 36.9%
inhibition [45]: -8.7%
inhibition [46]: 1.3%
Structure (SMILES): O=C(NC1CCCCC1)N1OCC2CSc3ccc(F)cc3C21 (stereo unspecified)

inhibition [1]: 92%
Ki [2]: > 10 µM
Ki [3]: 0.489 µM
Ki [4]: > 10 µM
inhibition [5]: 34.9%
Structure (SMILES): CCCCNC(=O)N1OCC2CSc3ccc(F)cc3C21 (stereo unspecified)
